Results taken from US11918693B2, “Ibuprofen and acetaminophen tablet” (GlaxoSmithKline Consumer Healthcare Holdings (US) LLC, priority 2019, dated 2024).

Test system: patients with moderate-severe pain after ≥3 third molar extractions
Test: Study 2: phase 3 single-dose dental pain study, FDC vs IBU 250 mg, APAP 650 mg and placebo
Type: in vivo, human
Details: for Dizziness, treatment-emergent adverse event, n (%) / Flushing, treatment-emergent adverse event, n (%) / Headache, treatment-emergent adverse event, n (%) / Nausea, treatment-emergent adverse event, n (%) / Vomiting, treatment-emergent adverse event, n (%): Single-Dose Study 2; for SPID[11]0-8, Tx Diff vs. placebo: first treatment − second treatment, IBU 250 mg, APAP 650 mg; for Number (%) of patients with treatment failure: 12-hour study
Description: Two Studies were performed, both single-center, phase 3, randomized, double-blind, parallel-group, placebo-controlled studies conducted in the United States. Study 2 was a single-dose study whereas Study 3 was a multiple-dose study. The studies were performed in compliance with the ethical principles originating in or derived from the Declaration of Helsinki and in compliance with all International Council for Harmonization Good Clinical Practice Guidelines, as well as all local regulatory requirements.
In Study 2, patients experiencing moderate-severe pain after ≥3 third molar extractions, with at least 2 with partial or complete mandibular impaction, were randomized 3:3:3:1 to receive single-dose FDC IBU/APAP 250 mg/500 mg (administered as 2 tablets of IBU 125 mg/APAP 250 mg), IBU 250 mg alone, APAP 650 mg alone, or placebo under double-blind conditions. Patients self-assessed pain severity and pain relief on site for 12 hours following administration of study medication.
Rescue medication consisted of tramadol hydrochloride 50-100 mg or codeine sulfate 15-60 mg, both immediate release, and patients could administer additional doses every 4-6 hours as needed up to the maximum labeled daily dose. Patients who took rescue medication remained at the study site for the full duration of each study (12 or 48 hours, respectively) and continued to perform assessments.
In both studies 2 and 3, patients were healthy adult males or females aged 18-40 years inclusive, who had undergone surgical extraction of ≥3 third molar teeth (≥2 must have been partial or complete bony mandibular impactions). Other key entry criteria included moderate-severe pain confirmed by a rating of ≥50 mm on a 100-mm visual analog pain severity rating (PSR) scale within approximately 5 hours after completion of surgery and use of only the following preoperative medications/anesthetics: topical benzocaine, a short-acting parenteral local anesthetic (mepivacaine or lidocaine) with or -without a vasoconstrictor and/or nitrous oxide, and no contraindications to the study or rescue medications.
In Study 2, enrolled patients received one of 4 treatments: 1) placebo (administered as 2 tablets); 2) FDC IBU/APAP 250 mg/500 mg (administered as 2 caplets of IBU 125 mg/APAP 250 mg); 3) IBU 250 mg (administered as 2 caplets of IBU 125 mg); or APAP 650 mg (administered as 2 tablets of APAP 325 mg).
At baseline, patients provided self-ratings of pain severity using categorical and numerical PSR scales. The categorical PSR used a 4-point scale (none, mild, moderate, severe), with each category assigned a number from 0 (none) to 3 (severe). Patients reporting at least moderate pain on the categorical PSR at baseline completed a 100-mm visual analog scale. A score of at least 50 mm confirmed eligibility for the study. Additionally, an 11-point (0-10; 0=none to 10=worst possible pain) numerical PSR scale was also used to assess pain.
Once study treatment was administered, the categorical PSR, numerical PSR, and a 5-point categorical pain relief rating scale (0=none, 1=a little, 2=some, 3=a lot, 4=complete) were obtained at predefined assessment times to assess pain and pain relief. In Study 2 (single-dose trial), these assessments were performed at 0.25, 0.5, 1, 1.5, 2, 3, 4, 5, 6, 7, 8, 9, 10, 11, and 12 hours post-treatment. In Study 3 (multiple-dose trial), these assessments were performed at the same time points as in Study 2 up to 12 hours and also at 16, 24, 32, 40, and 48 hours post-treatment Additional evaluations included patient assessments of time to first perceptible pain relief (TFPR), defined as the time that a patient first began to feel any pain-relieving effect whatsoever of the drug and time to meaningful pain relief (TMPR), defined as the time that a patient experienced pain relief that was meaningful to that individual, using the double-stopwatch method, see Mehlisch D R et al., 2010, ibid. […]

[1] = IBU dose 250 mg, APAP dose 650 mg
[2] = Study 2, single oral dose, IBU dose 250 mg, APAP dose 650 mg

## CC(C)Cc1ccc(C(C)C(=O)O)cc1 (centres unmarked) [IBU, 2-(4-isobutylphenyl) propionic acid]
[1]
  Dizziness, treatment-emergent adverse event, n (%): 6 (3.4) n (%)
  Flushing, treatment-emergent adverse event, n (%): 2 (1.1) n (%)
  Headache, treatment-emergent adverse event, n (%): 3 (1.7) n (%)
  Nausea, treatment-emergent adverse event, n (%): 24 (13.7) n (%)
  Vomiting, treatment-emergent adverse event, n (%): 15 (8.6) n (%)
Study 2, LSM difference
  SPID[11]0-8, Tx Diff vs. placebo: 24.42
Study 2, LSM difference, comparator APAP 650 mg, IBU dose 250 mg
  SPID[11]0-8, Tx Diff vs. APAP: 9.10
[2]
  Cumulative proportion of treatment failures after 8 hours: 33.1%
  Median duration of pain relief (median time to treatment failure): 10.1 h
  Median duration of pain relief (time to treatment failure): 608.5 min
  Median time to onset of first perceptible pain relief (TFPR): 24.6 min
  Median time to onset of meaningful pain relief (TMPR): 65.9 min
  Number (%) of patients with meaningful relief: 139 (79.4) n (%)
  Number (%) with event, first perceptible pain relief table: 139 (79.4) n (%)
  SPID[11]0-8, Mean (SD): 28.9 (20.5)
  SPID[11]0-8, Median: 30.5
  Number (%) of patients with treatment failure: 105 (60.0) n (%)

## CC(=O)Nc1ccc(O)cc1 [APAP, N-(4-hydroxyphenyl)acetamide]
[1]
  Dizziness, treatment-emergent adverse event, n (%): 12 (7.3) n (%)
  Flushing, treatment-emergent adverse event, n (%): 1 (0.6) n (%)
  Headache, treatment-emergent adverse event, n (%): 4 (2.4) n (%)
  Nausea, treatment-emergent adverse event, n (%): 33 (20.0) n (%)
  Vomiting, treatment-emergent adverse event, n (%): 20 (12.1) n (%)
Study 2, LSM difference
  SPID[11]0-8, Tx Diff vs. placebo: 15.32
[2]
  Cumulative proportion of treatment failures after 8 hours: 51.5%
  Median duration of pain relief (time to treatment failure): 449.0 min
  Median time to onset of first perceptible pain relief (TFPR): 24.2 min
  Median time to onset of meaningful pain relief (TMPR): 56.6 min
  Number (%) of patients with meaningful relief: 118 (71.5) n (%)
  Number (%) with event, first perceptible pain relief table: 118 (71.5) n (%)
  SPID[11]0-8, Mean (SD): 19.4 (20.0)
  SPID[11]0-8, Median: 16.8
  Number (%) of patients with treatment failure: 105 (63.6) n (%)
